The values below come from patent publication US20240116985A1, “STAPLED PEPTIDES AND METHODS THEREOF” (priority 2020, published 2024).

In assay [1] the target is T1, full-length beta-Catenin (Uniprot ID P35222) (Homo sapiens, UniProt P35222).
T1 construct: 10 nM full-length beta-Catenin (Uniprot ID P35222)
T1 sequence (P35222 1-781): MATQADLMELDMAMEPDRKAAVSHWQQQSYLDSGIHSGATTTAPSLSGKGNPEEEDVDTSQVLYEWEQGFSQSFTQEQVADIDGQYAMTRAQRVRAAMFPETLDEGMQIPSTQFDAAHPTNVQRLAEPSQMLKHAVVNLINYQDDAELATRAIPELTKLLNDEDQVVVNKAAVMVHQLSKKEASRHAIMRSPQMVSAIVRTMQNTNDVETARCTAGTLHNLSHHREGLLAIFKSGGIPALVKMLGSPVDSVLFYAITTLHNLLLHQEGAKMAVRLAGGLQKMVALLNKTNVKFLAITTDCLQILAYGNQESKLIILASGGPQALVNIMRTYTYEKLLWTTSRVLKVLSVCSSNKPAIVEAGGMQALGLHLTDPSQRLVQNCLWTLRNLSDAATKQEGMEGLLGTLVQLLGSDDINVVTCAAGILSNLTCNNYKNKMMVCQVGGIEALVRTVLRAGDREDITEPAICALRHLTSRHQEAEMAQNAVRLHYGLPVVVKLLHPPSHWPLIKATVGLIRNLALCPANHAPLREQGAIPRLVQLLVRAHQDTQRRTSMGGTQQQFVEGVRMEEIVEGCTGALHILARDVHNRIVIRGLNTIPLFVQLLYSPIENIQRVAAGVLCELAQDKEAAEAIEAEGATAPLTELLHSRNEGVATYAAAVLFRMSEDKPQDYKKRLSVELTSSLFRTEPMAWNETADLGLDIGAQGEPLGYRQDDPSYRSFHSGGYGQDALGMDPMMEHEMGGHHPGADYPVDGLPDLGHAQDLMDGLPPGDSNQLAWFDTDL
The assay is described as follows: Fluorescence polarization IC50 (beta-catenin / 5FAM-TCF4 10-53 competition). Format: binding. The settings on record: fluorescence polarization; read-out: beta-Catenin FP IC50.

The target in assay [2] is T2, beta-catenin/TCF4 engagement (Homo sapiens, UniProt P35222).
T2 construct: expressed in transfected cells; host or cells: HEK293
T2 sequence (P35222 1-781): T1 sequence (P35222 1-781)
The assay is described as follows: Nano-BRET target engagement assay (B-cat-Halo & TCF4-Luc in HEK293 cells). Format: cell-based. The settings on record: absolute IC50; read-out: NanoBRET Abs IC50. On the technique in general: Bioluminescence resonance energy transfer reports proximity on the nanometre scale.

In general, IC50 refers to the concentration that gives 50% inhibition. Turning to `CC(=O)N1CCC[C@]12CC=CCCCC1(CCCC=CCCCOC(=O)N3CC[C@@](C(=O)N[C@@H](Cc4ccsc4)C(=O)N[C@@H](Cc4ccc(F)c(Br)c4)C(=O)N[C@@H](C)C(N)=O)(C3)NC(=O)[C@H](C(C)C)NC(=O)[C@H](Cc3ccccc3)NC(=O)[C@H](C)NC(=O)[C@H](CCC(N)=O)NC(=O)[C@H](Cc3cccc(C(=O)O)c3)NC(=O)[C@H](CC(=O)O)NC1=O)NC(=O)[C@H](CC(C)(C)C)NC(=O)[C@H](CC(=O)O)NC2=O` (stereo partly drawn) [I-2288, Ac-PL3-Asp-Npg-B5-Asp-3COOHF-Gln-Ala-Phe-Val-PyrS2-3Thi-3Br4FF-Ala-NH2], the IC50 worked out at 5 nM in assay [1] and 6.7 µM in assay [2].
For `CC(=O)N1CCC[C@]12CC=CCCCC1(CCCC=CCCCOC(=O)N3CC[C@@](C(=O)N[C@@H](Cc4ccccc4C(F)(F)F)C(=O)N[C@@H](Cc4ccc(F)c(Br)c4)C(=O)N[C@@H](CO)C(N)=O)(C3)NC(=O)[C@H](CC(C)C)NC(=O)[C@H](Cc3ccccc3)NC(=O)[C@H](C)NC(=O)[C@H](C)NC(=O)[C@H](Cc3cccc(C(=O)O)c3)NC(=O)[C@H](CC(=O)O)NC1=O)NC(=O)[C@H](CC(C)(C)C)NC(=O)[C@H](CC(=O)O)NC2=O` (stereo partly drawn) [I-2289, Ac-PL3-Asp-Npg-B5-Asp-3COOHF-Ala-Ala-Phe-Leu-PyrS2-2F3MeF-3Br4FF-Ser-NH2], in that order: 8 nM and 9 µM.
`CC(=O)N1CCC[C@]12CC=CCCCC1(CCCC=CCCCOC(=O)N3CC[C@@](C(=O)N[C@@H](Cc4ccccc4C(F)(F)F)C(=O)N[C@@H](Cc4ccc(F)c(Br)c4)C(=O)N[C@@H](C)C(N)=O)(C3)NC(=O)[C@H](CC(C)C)NC(=O)[C@H](Cc3ccccc3)NC(=O)[C@H](C)NC(=O)[C@H](CCC(N)=O)NC(=O)[C@H](Cc3cccc(C(=O)O)c3)NC(=O)[C@H](CC(=O)O)NC1=O)NC(=O)[C@H](CC(C)(C)C)NC(=O)[C@H](CC(=O)O)NC2=O` (stereo partly drawn) [I-2290, Ac-PL3-Asp-Npg-B5-Asp-3COOHF-Gln-Ala-Phe-Leu-PyrS2-2F3MeF-3Br4FF-Ala-NH2]: the IC50 in assay [1] was determined as 14 nM; in assay [2], 7.9 µM.
For the compound `CC(=O)N1CCC[C@]12CC=CCCCC1(CCCC=CCCCOC(=O)N3CC[C@@](C(=O)N[C@@H](Cc4ccsc4)C(=O)N[C@@H](Cc4ccc(C)c(C)c4)C(=O)N[C@@H](CCC(N)=O)C(N)=O)(C3)NC(=O)[C@H](CC(C)C)NC(=O)[C@H](Cc3ccccc3)NC(=O)[C@H](C)NC(=O)[C@H](C)NC(=O)[C@H](Cc3cccc(C(=O)O)c3)NC(=O)[C@H](CC(=O)O)NC1=O)NC(=O)[C@H](CC(C)(C)C)NC(=O)[C@H](CC(=O)O)NC2=O` (stereo partly drawn) [I-2291, Ac-PL3-Asp-Npg-B5-Asp-3COOHF-Ala-Ala-Phe-Leu-PyrS2-3Thi-34MeF-Gln-NH2], the IC50 is 5 nM in assay [1] and 4.9 µM in assay [2].
For `CC(=O)N1CCC[C@]12CC=CCCCC1(CCCC=CCCCOC(=O)N3CC[C@@](C(=O)N[C@@H](Cc4ccsc4)C(=O)N[C@@H](Cc4ccc(C)c(C)c4)C(=O)N[C@@H](C)C(N)=O)(C3)NC(=O)[C@H](C(C)C)NC(=O)[C@H](Cc3ccccc3)NC(=O)[C@H](C)NC(=O)[C@H](CCC(N)=O)NC(=O)[C@H](Cc3cccc(C(=O)O)c3)NC(=O)[C@H](CC(=O)O)NC1=O)NC(=O)[C@H](CC(C)(C)C)NC(=O)[C@H](CC(=O)O)NC2=O` (stereo partly drawn) [I-2292, Ac-PL3-Asp-Npg-B5-Asp-3COOHF-Gln-Ala-Phe-Val-PyrS2-3Thi-34MeF-Ala-NH2], in that order: 9 nM and 2.7 µM.
As to `CC(=O)N1CCC[C@]12CC=CCCCC1(CCCC=CCCCOC(=O)N3CC[C@@](C(=O)N[C@@H](Cc4ccccc4C(F)(F)F)C(=O)N[C@@H](Cc4ccc(C)c(C)c4)C(=O)N[C@@H](CO)C(N)=O)(C3)NC(=O)[C@H](CC(C)C)NC(=O)[C@H](Cc3ccccc3)NC(=O)[C@H](C)NC(=O)[C@H](C)NC(=O)[C@H](Cc3cccc(C(=O)O)c3)NC(=O)[C@H](CC(=O)O)NC1=O)NC(=O)[C@H](CC(C)(C)C)NC(=O)[C@H](CC(=O)O)NC2=O` (stereo partly drawn) [I-2293, Ac-PL3-Asp-Npg-B5-Asp-3COOHF-Ala-Ala-Phe-Leu-PyrS2-2F3MeF-34MeF-Ser-NH2], the IC50 is 15 nM in assay [1] and 5.7 µM in assay [2].
Taken in the same sequence, the figures for `CC(=O)N1CCC[C@]12CC=CCCCC1(CCCC=CCCCOC(=O)N3CC[C@@](C(=O)N[C@@H](Cc4ccccc4C(F)(F)F)C(=O)N[C@@H](Cc4ccc(C)c(C)c4)C(=O)N[C@@H](C)C(N)=O)(C3)NC(=O)[C@H](CC(C)C)NC(=O)[C@H](Cc3ccccc3)NC(=O)[C@H](C)NC(=O)[C@H](CCC(N)=O)NC(=O)[C@H](Cc3cccc(C(=O)O)c3)NC(=O)[C@H](CC(=O)O)NC1=O)NC(=O)[C@H](CC(C)(C)C)NC(=O)[C@H](CC(=O)O)NC2=O` (stereo partly drawn) [I-2294, Ac-PL3-Asp-Npg-B5-Asp-3COOHF-Gln-Ala-Phe-Leu-PyrS2-2F3MeF-34MeF-Ala-NH2] were 16 nM and 4.6 µM.
Taken in the same sequence, the figures for `CC(=O)N1CCC[C@]12CC=CCCCC1(CCCC=CCCCOC(=O)N3CC[C@@](C(=O)N[C@@H](Cc4ccsc4)C(=O)N[C@@H](Cc4ccc5c(c4)CCC5)C(=O)N[C@@H](CCC(N)=O)C(N)=O)(C3)NC(=O)[C@H](CC(C)C)NC(=O)[C@H](Cc3ccccc3)NC(=O)[C@H](C)NC(=O)[C@H](C)NC(=O)[C@H](Cc3cccc(C(=O)O)c3)NC(=O)[C@H](CC(=O)O)NC1=O)NC(=O)[C@H](CC(C)(C)C)NC(=O)[C@H](CC(=O)O)NC2=O` (stereo partly drawn) [I-2295, Ac-PL3-Asp-Npg-B5-Asp-3COOHF-Ala-Ala-Phe-Leu-PyrS2-3Thi-5IndA-Gln-NH2] were 5 nM and 3.3 µM.
For `CC(=O)N1CCC[C@]12CC=CCCCC1(CCCC=CCCCOC(=O)N3CC[C@@](C(=O)N[C@@H](Cc4ccsc4)C(=O)N[C@@H](Cc4ccc5c(c4)CCC5)C(=O)N[C@@H](C)C(N)=O)(C3)NC(=O)[C@H](C(C)C)NC(=O)[C@H](Cc3ccccc3)NC(=O)[C@H](C)NC(=O)[C@H](CCC(N)=O)NC(=O)[C@H](Cc3cccc(C(=O)O)c3)NC(=O)[C@H](CC(=O)O)NC1=O)NC(=O)[C@H](CC(C)(C)C)NC(=O)[C@H](CC(=O)O)NC2=O` (stereo partly drawn) [I-2296, Ac-PL3-Asp-Npg-B5-Asp-3COOHF-Gln-Ala-Phe-Val-PyrS2-3Thi-5IndA-Ala-NH2], in that order: 6 nM and 5.1 µM.
For `CC(=O)N1CCC[C@]12CC=CCCCC1(CCCC=CCCCOC(=O)N3CC[C@@](C(=O)N[C@@H](Cc4ccccc4C(F)(F)F)C(=O)N[C@@H](Cc4ccc5c(c4)CCC5)C(=O)N[C@@H](CO)C(N)=O)(C3)NC(=O)[C@H](CC(C)C)NC(=O)[C@H](Cc3ccccc3)NC(=O)[C@H](C)NC(=O)[C@H](C)NC(=O)[C@H](Cc3cccc(C(=O)O)c3)NC(=O)[C@H](CC(=O)O)NC1=O)NC(=O)[C@H](CC(C)(C)C)NC(=O)[C@H](CC(=O)O)NC2=O` (stereo partly drawn) [I-2297, Ac-PL3-Asp-Npg-B5-Asp-3COOHF-Ala-Ala-Phe-Leu-PyrS2-2F3MeF-5IndA-Ser-NH2], the IC50 was determined as 68 nM in assay [1] and 5.5 µM in assay [2].
As to `CC(=O)N1CCC[C@]12CC=CCCCC1(CCCC=CCCCOC(=O)N3CC[C@@](C(=O)N[C@@H](Cc4ccccc4C(F)(F)F)C(=O)N[C@@H](Cc4ccc5c(c4)CCC5)C(=O)N[C@@H](C)C(N)=O)(C3)NC(=O)[C@H](CC(C)C)NC(=O)[C@H](Cc3ccccc3)NC(=O)[C@H](C)NC(=O)[C@H](CCC(N)=O)NC(=O)[C@H](Cc3cccc(C(=O)O)c3)NC(=O)[C@H](CC(=O)O)NC1=O)NC(=O)[C@H](CC(C)(C)C)NC(=O)[C@H](CC(=O)O)NC2=O` (stereo partly drawn) [I-2298, Ac-PL3-Asp-Npg-B5-Asp-3COOHF-Gln-Ala-Phe-Leu-PyrS2-2F3MeF-5IndA-Ala-NH2], the IC50 in assay [1] was found to be 8 nM; in assay [2] it was 4.6 µM.
In the case of `CCNC(=O)CC[C@H](NC(=O)[C@H](Cc1csc2ccccc12)NC(=O)[C@H](Cc1ccccc1C(F)(F)F)NC(=O)[C@]12CCN(C1)C(=O)OCCCC=CCCCC1(CCCC=CC[C@]3(CCCN3C(C)=O)C(=O)N[C@@H](CC(=O)O)C(=O)N[C@@H](CC(C)(C)C)C(=O)N1)C(=O)N[C@@H](CC(=O)O)C(=O)N[C@@H](Cc1cccc(C(=O)O)c1)C(=O)N[C@@H](CCC(=O)NCC)C(=O)N[C@@H](C)C(=O)N[C@@H](Cc1ccccc1)C(=O)N[C@@H](CC(C)C)C(=O)N2)C(N)=O` (stereo partly drawn) [I-2299, Ac-PL3-Asp-Npg-B5-Asp-3COOHF-[NHEt]GlnR-Ala-Phe-Leu-PyrS2-2F3MeF-BztA-NHEt]GlnR-NH2], the IC50 is 7 nM in assay [1] and 5.2 µM in assay [2].
In the case of `CNCCCCN(C)C(=O)CC[C@@H]1NC(=O)[C@H](Cc2cccc(C(=O)O)c2)NC(=O)[C@H](CC(=O)O)NC(=O)C2(CCCC=CCCCOC(=O)N3CC[C@@](C(=O)N[C@@H](Cc4ccsc4)C(=O)N[C@@H](Cc4csc5ccccc45)C(=O)N[C@@H](C)C(N)=O)(C3)NC(=O)[C@H](C(C)C)NC(=O)[C@H](Cc3ccccc3)NC(=O)[C@H](C)NC1=O)CCCC=CC[C@]1(CCCN1C(C)=O)C(=O)N[C@@H](CC(=O)O)C(=O)N[C@@H](CC(C)(C)C)C(=O)N2` (stereo partly drawn) [I-2301, Ac-PL3-Asp-Npg-B5-Asp-3COOHF-[Me2diaminobutane]GlnR-Ala-Phe-Val-PyrS2-3Thi-BztA-Ala-NH2], the IC50 was 5 nM in assay [1] and above 20 µM in assay [2].
